Assay results from US11426473B2, “Nitrogen-containing compound or salt thereof, or metal complex thereof” (FUJIFILM Corporation, priority 2013, dated 2022).

Key:
[1] = Absorbed doses in each organ in humans calculated with OLINDA/EXM 1.0 from monkey organ distribution; assay type: in vivo; conditions: calculated with OLINDA/EXM 1.0 from monkey imaging with [111In]-(P2)
Protocol: (§1) Blood kinetic parameters were calculated with OLINDA/EXM 1.0 from the blood concentration of radioactivity by blood collection over time from a cynomolgus monkey using [^111In]-(P2). Also, absorbed doses in each organ in the case of administration to humans were calculated with OLINDA/EXM 1.0 from organ distribution by imaging using [^111In]-(P2). The radiolabeled compound [^111In]-(P2) (98 MBq/[…]) was administered to a cynomolgus monkey (Hamri Co., Ltd., male, 3 years old, 3.4 kg) under anesthesia. After the administration, blood collection and imaging with a gamma camera were performed over time. The blood collection was carried out 10 minutes, 30 minutes, 60 minutes, 2 hours, 4 hours, 5 hours, 6 hours, 24 hours, 48 hours, 72 hours, and 144 hours after administration. The imaging was carried out 1, 2, 4, 6, 24, 48, 72, and 144 hours after administration with a gamma camera (Symbia, Siemens AG) to take planar images. The anesthesia was carried out using 20 mg/kg ketamine before administration of [^111In]-(P2) and maintained by inhalation anesthesia (2 to 3% isoflurane, 5 to 8 L/min) until the completion of the imaging at 6 hours after administration. At or after 24 hours after administration, blood collection and imaging were performed by the introduction of 20 mg/kg ketamine and 2 mg/kg xylazine. […] The blood kinetic parameters are shown below.

[2] = test system: U87MG cells subcutaneous tumor; assay: Concentration of radioactivity in tumor of labeled compounds (Test Example 4); assay type: in vivo, mouse; conditions: tail vein, 111In 740 kBq, 64Cu and 90Y 500 kBq
Protocol: U87MG cells were subcutaneously transplanted at 1×10^7 cells/mouse to the right flank of Balb/cAJcl-nu/nu (CLEA Japan, Inc. or Japan SLC, Inc., 6 to 9 weeks old). After 2 to 3 weeks, the mice were divided into groups each involving 3 individuals per point in time when their tumors became 200 to 500 mm^3. The ^111In-labeled compound (740 kBq) was administered to the tail veins of the mice.
After a given time, the animals were sacrificed to extract their tumors. The weights of the tumors were measured, and the radioactivity was measured using a gamma counter to calculate the concentration of radioactivity in the tumors (% ID/g). In the same way as above, the concentration of radioactivity in the tumors (% ID/g) was calculated for the ^64Cu-labeled compound (500 kBq) and the ^90Y-labeled compound (500 kBq).

[3] = test system: U87MG cells subcutaneous tumor; assay: Imaging of integrin-expressing tumor with gamma camera; assay type: in vivo; conditions: 1 MBq/mouse tail vein, 24 hours to 72 hours after administration, FIG. 6
Protocol: U87MG cells were subcutaneously transplanted at 1×10^7 cells/mouse to the right flank of Balb/cAJcl-nu/nu (CLEA Japan, Inc., male, 6 weeks old). After 2 weeks, a dosing solution of the radiolabeled compound [^111In]-(P2) was administered at 1 MBq/mouse to the tail veins of mice whose tumors became 300 to 600 mm^3. 24, 48, and 72 hours after administration, the planar images were taken with a gamma camera (Symbia, Siemens AG) under isoflurane anesthesia. The radioactivity in the tumors (% ID) was calculated by image analysis.

[4] = Radiochemical purity after standing at room temperature; assay type: physicochemical
Protocol: To a mixed solution of compound (P2) (8.5 μg) and a 0.2 mol/L sodium acetate buffer solution (pH 4.0) (1.5 mL), a [^111In] indium chloride solution (80 MBq, 100 μL) was added. The mixture was heated at 100° C. for 15 minutes and then left at room temperature for 5 minutes to obtain radiolabeled compound [^111In]-(P2). […] Its radiochemical purity was 95% or more both immediately after preparation and after standing at room temperature for 24 hours.
To a mixed solution of compound (P2) (79 μg), gentisic acid (1.8 mg), a 0.6 mol/L sodium acetate buffer solution (pH 4.0, 120 μL), and a 0.4 mol/L aqueous sodium hydroxide solution (24 μL), a [^90Y] yttrium chloride solution (700 MBq, 240 μL) was added. The mixture was heated at 100° C. for 20 minutes and then left at room temperature for 5 minutes to obtain radiolabeled compound [^90Y]-(P2). […] Its radiochemical purity was 95% or more both immediately after preparation and after standing at room temperature for 24 hours.
To a mixed solution of compound (P2) ([…]) and a 0.2 mol/L sodium acetate buffer solution (pH 4.0, 219 μL), a [^64Cu] copper chloride solution (pH 5, 35 MBq, 55 μL) was added. The mixture was heated at 100° C. for 15 minutes and then left at room temperature for 5 minutes to obtain radiolabeled compound [^64Cu]-(P2). […] Its radiochemical purity was 90% or more both immediately after preparation and after standing at room temperature for 22 hours.
To a mixed solution of compound (Aa7) (4.2 μg), gentisic acid (1 mg), and a 0.2 mol/L sodium acetate buffer solution (pH 4.0) (5.0 μL), [^64Cu] copper chloride in a 0.2 mol/L sodium acetate buffer solution (pH 4.0) (40 MBq, 155 μL) was added. The mixture was heated at 100° C. for 15 minutes and then left at room temperature for 5 minutes to obtain radiolabeled compound [^64Cu]-(Aa7). […] Its radiochemical purity was 90% or more both immediately after preparation and after standing at room temperature for 24 hours.

[5] = Time-dependent planar imaging of monkey; assay type: in vivo; conditions: cynomolgus monkey, from administration to 6 hours later, FIG. 9
Protocol: as §1, with “below. […]” for “below.”

[6] = test system: U87MG cells intracranial tumor; assay: Imaging of integrin-expressing tumor, intracranial tumor model; assay type: in vivo; conditions: 1 MBq/mouse tail vein, FIG. 7
Protocol: U87MG cells were intracranially transplanted at 1×10^7 cells/mouse to Balb/cAJcl-nu/nu (CLEA Japan, Inc., male, 6 weeks old) using a tapered needle. After 2 to 4 weeks, a dosing solution of the radiolabeled compound [^111In]-(P2) was administered at 1 MBq/mouse to the tail veins of the mice. 24, 48, and 72 hours after administration, the planar images were taken with a gamma camera (Symbia, Siemens AG) under isoflurane anesthesia (FIG. 7). After the imaging at the final time point, the brain was extracted, and frozen sections were prepared. Several pieces of the tumor sections were contacted with IP plates, and accumulation images were obtained by autoradiography (ARG). The serial sections were stained with hematoxylin-eosin to confirm tumors.

[7] = Blood kinetic parameters in monkey; assay type: in vivo; conditions: cynomolgus monkey, blood radioactivity, 98 MBq
Protocol: as §1

[8] = test system: U87MG cells subcutaneous tumor; assay: Imaging of integrin-expressing tumor by PET; assay type: in vivo; conditions: at the time of anatomy (48 hours after administration), 4.8 MBq/mouse tail vein
Protocol: U87MG cells were subcutaneously transplanted at 1×10^7 cells/mouse to the right flank of Balb/cAJcl-nu/nu (CLEA Japan, Inc. or Japan SLC, Inc., male, 6 to 9 weeks old). After 2 weeks, the radiolabeled compound [^64Cu]-(P2) was administered at 4.8 MBq/mouse to the tail veins of mice whose tumors became 250 to 650 mm^3. After 1, 4, 24, and 48 hours, the images were taken in microPET/CT (Inveon, Siemens AG) under isoflurane anesthesia. After the imaging at 48 hours after administration, the mice were euthanized by the collection of the whole blood from the postcava under deep anesthesia with isoflurane, followed by tumor extraction. The weights of the tumors were measured, and the radioactivity was measured using a gamma counter to calculate the concentration of radioactivity in the tumors (% ID/g). In the same way as above, [^64Cu]-(Aa7), [^64Cu]-(Ab9-a), and [^64Cu]-(Ab9-b) were imaged. However, the concentration of radioactivity in the tumors was not calculated. The tumor accumulation was confirmed for all of the compounds 1 hour after administration, and the tumors were visualized up to 48 hours later. […] The concentration of radioactivity in the tumors was 5.6% ID/g at the time of anatomy (48 hours after administration).

| Absorbed dose, Brain [1] | Absorbed dose, Kidney [1] | Absorbed dose, Liver [1] | Absorbed dose, Lung [1] | Absorbed dose, Red bone marrow [1] | Absorbed dose, Small intestine [1] | Absorbed dose, Whole body [1] | Concentration of radioactivity in tumor ([2]; 4 hours later) | Concentration of radioactivity in tumor ([2]; 24 hours later) | SMILES | other results |
| --- | --- | --- | --- | --- | --- | --- | --- | --- | --- | --- |
| 0.25 mGy/MBq | 1.19 mGy/MBq | 0.19 mGy/MBq | 0.12 mGy/MBq | 0.05 mGy/MBq | 0.05 mGy/MBq | 0.05 mGy/MBq | 11.10 % ID/g | 9.62 % ID/g | Cc1cc(OCCCC(=O)NCCNC(=O)[C@H](CS(=O)(=O)O)NC(=O)CN2CCN(CC(=O)[O-])CCN(CC(=O)[O-])CCN(CC(=O)[O-])CC2)cc(C)c1S(=O)(=O)N[C@@H](CNC(=O)CCCCc1ccc2c(n1)NCCC2)C(=O)O.[111In+3] [[^111In]-(P2)] | radioactivity in tumor versus other organs, planar images [3]: radioactivity was higher in the tumor than other organs; radiochemical purity after standing ([4]; immediately after preparation and after standing at room temperature for 24 hours): ≥ 95%; organ accumulation on planar images [5]: accumulation to the bladder and the gallbladder was increased over time; accumulation in intracranial tumor by planar imaging and ARG [6]: consistent with the tumor was confirmed; AUC [7]: 0.22 % ID · h/mL; CL [7]: 2.17 mL/min/kg; Cmax [7]: 0.018 % ID/mL; T½ α [7]: 0.46 h; T½ β [7]: 19.3 h; Vss [7]: 3.52 L/kg |
| 0.11 mGy/MBq | 0.69 mGy/MBq | 0.09 mGy/MBq | 0.08 mGy/MBq | 0.01 mGy/MBq | 0.06 mGy/MBq | 0.02 mGy/MBq | 9.25 % ID/g | 8.48 % ID/g | Cc1cc(OCCCC(=O)NCCNC(=O)[C@H](CS(=O)(=O)O)NC(=O)CN2CCN(CC(=O)[O-])CCN(CC(=O)[O-])CCN(CC(=O)O)CC2)cc(C)c1S(=O)(=O)N[C@@H](CNC(=O)CCCCc1ccc2c(n1)NCCC2)C(=O)O.[64Cu+2] [[^64Cu]-(P2)] | concentration of radioactivity in the tumors [8]: 5.6 % ID/g; radiochemical purity after standing ([4]; immediately after preparation and after standing at room temperature for 22 hours): ≥ 90% |
